Assay results taken from ChEMBL document CHEMBL4152309, “N-phenylsulfonyl-3,5-bis(arylidene)-4-piperidone derivatives as activation NF-κB inhibitors in hepatic carcinoma cell lines” (Eur J Med Chem, 2018).
Activity calls are given as the source filed them. The calls are words filed in the database; no cut-off is given here.

Experiments:
[1] = system: L02; assay: Cytotoxicity against human LO2 cells assessed as reduction in cell viability after 24 hrs by MTT assay; assay type: cell-based; conditions: L02, 24 h
[2] = system: HepG2; assay: Cytotoxicity against human HepG2 cells assessed as reduction in cell viability after 24 hrs by MTT assay; assay type: functional, cell-based; conditions: for IC50: HepG2, 24 h
[3] = system: QGY-7703; assay: Cytotoxicity against human QGY7703 cells assessed as reduction in cell viability after 24 hrs by MTT assay; assay type: functional, cell-based; conditions: for IC50: QGY-7703, 24 h
[4] = Cytotoxicity against human HHL5 cells assessed as reduction in cell viability after 24 hrs by MTT assay; assay type: cell-based; conditions: HHL-5, 24 h
[5] = Cytotoxicity against mouse RAW264.7 cells assessed as cell viability at 10 uM after 24 hrs by MTT assay relative to control; assay type: cell-based; conditions: read-out: Activity
[6] = system: SMMC-7721; assay: Cytotoxicity against human SMMC7721 cells assessed as reduction in cell viability after 24 hrs by MTT assay; assay type: functional, cell-based; conditions: for IC50: SMMC-7721, 24 h
[7] = system: RAW264.7; assay: Anti-inflammatory activity in mouse RAW264.7 cells assessed as inhibition of LPS-induced IL-6 secretion at 10 uM pretreated for 2 hrs followed by LPS stimulation and measured after 22 hrs by ELISA; assay type: functional, cell-based
[8] = system: RAW264.7; assay: Anti-inflammatory activity in mouse RAW264.7 cells assessed as inhibition of LPS-induced TNFalpha secretion at 10 uM pretreated for 2 hrs followed by LPS stimulation and measured after 22 hrs by ELISA; assay type: functional, cell-based
[9] = system: RAW264.7; assay: Anti-inflammatory activity in mouse RAW264.7 cells assessed as inhibition of LPS-induced TNFalpha secretion at 30 uM pretreated for 2 hrs followed by LPS stimulation and measured after 22 hrs by ELISA; assay type: functional, cell-based
[10] = system: RAW264.7; assay: Anti-inflammatory activity in mouse RAW264.7 cells assessed as inhibition of LPS-induced IL-6 secretion at 30 uM pretreated for 2 hrs followed by LPS stimulation and measured after 22 hrs by ELISA; assay type: functional, cell-based

Structure (SMILES) | IC50 [1] | IC50 [2] | IC50 [3] | IC50 [4] | viability at 24 h, 10 µM [5] | IC50 [6] | inhibition [7] | inhibition [8] | Activity [2] | Activity [3] | Activity [6] | inhibition [9] | inhibition [10]
COc1cc(/C=C2\CN(S(=O)(=O)c3ccc(NC(C)=O)cc3)C/C(=C\c3cccc([N+](=O)[O-])c3)C2=O)cc(OC)c1OC | 15.6 µM | 3.34 µM | 2.55 µM | 14.2 µM | > 80% | 1.95 µM |  |  |  |  |  |  | 
COc1cc(/C=C2\CN(S(=O)(=O)c3ccc(NC(C)=O)cc3)C/C(=C\c3cc(OC)cc(OC)c3)C2=O)cc(OC)c1 | 18.7 µM | 7.54 µM | 11.3 µM | 18.1 µM | > 80% | 6.84 µM |  |  |  |  |  |  | 
COc1cc(/C=C2\CN(S(=O)(=O)c3ccc(NC(C)=O)cc3)C/C(=C\c3cc(OC)c(OC)c(OC)c3)C2=O)cc(OC)c1 | 15.9 µM | 4.14 µM | 2.02 µM | 13.5 µM | > 80% | 4.2 µM |  |  |  |  |  |  | 
COc1cc(/C=C2\CN(S(=O)(=O)c3ccc(F)cc3)C/C(=C\c3cc(OC)cc(OC)c3)C2=O)cc(OC)c1 | 19.8 µM | 8.1 µM | 11.4 µM | 14.4 µM | > 80% | 8.21 µM |  |  |  |  |  |  | 
CC(=O)Nc1ccc(S(=O)(=O)N2C/C(=C\c3ccc(C#N)cc3)C(=O)/C(=C/c3ccc(C#N)cc3)C2)cc1 | 14 µM | 4.88 µM | 3.32 µM | 11.9 µM | > 80% | 7.12 µM |  |  |  |  |  |  | 
CC(=O)Nc1ccc(S(=O)(=O)N2C/C(=C\c3cccc([N+](=O)[O-])c3)C(=O)/C(=C/c3ccccc3F)C2)cc1 | 18.4 µM | 8.8 µM | 7.85 µM | 20 µM | > 80% | 10.2 µM | Active |  |  |  |  |  | 
N#Cc1ccc(/C=C2\CN(S(=O)(=O)c3ccc(F)cc3)C/C(=C\c3ccc(C#N)cc3)C2=O)cc1 | 18.9 µM | 11.5 µM | 11.3 µM | 19.2 µM | > 80% | 20.1 µM |  | Active |  |  |  |  | 
COc1cc(/C=C2\CN(S(=O)(=O)c3ccc(F)cc3)C/C(=C\c3ccc(C#N)cc3)C2=O)cc(OC)c1OC | 12.9 µM | 4.95 µM | 4.98 µM | 12.9 µM | > 80% | 4.12 µM |  |  |  |  |  |  | 
COc1cc(/C=C2\CN(S(=O)(=O)c3ccc(F)cc3)C/C(=C\c3ccccc3F)C2=O)cc(OC)c1OC | 17.6 µM | 7.94 µM | 13.3 µM | 15.9 µM | > 80% | 6.34 µM | Active |  |  |  |  |  | 
COc1cccc2c1C(=O)c1c(O)c3c(c(O)c1C2=O)C[C@@](O)(C(=O)CO)C[C@@H]3O[C@H]1C[C@H](N)[C@H](O)[C@H](C)O1 [DOXORUBICIN] | 7.87 µM | 1.01 µM | 1.44 µM | 9.27 µM |  | 1.47 µM |  |  | Dose-dependent effect | Dose-dependent effect | Dose-dependent effect |  | 
CC(=O)Nc1ccc(S(=O)(=O)N2C/C(=C\c3ccc(C#N)cc3)C(=O)/C(=C/c3ccccc3F)C2)cc1 | 14.4 µM | 4.96 µM | 2.05 µM | 11.3 µM | > 80% | 3.15 µM |  |  |  |  |  |  | 
CC(=O)Nc1ccc(S(=O)(=O)N2C/C(=C\c3cccc([N+](=O)[O-])c3)C(=O)/C(=C/c3cccc([N+](=O)[O-])c3)C2)cc1 | 15.8 µM | 7.14 µM | 6.76 µM | 17.8 µM | > 80% | 8.42 µM |  |  |  |  |  |  | 
S=C(S)N1CCCC1 |  |  |  |  |  |  |  |  |  |  |  | Active | Active
